BigSolDB 2.1

## O=c1[nH]cc(F)c(=O)[nH]1
In ethanol, 293.15 K
  solubility (mole fraction): 0.00246
In ethanol, 298.15 K
  solubility (mole fraction): 0.00277
In ethanol, 303.15 K
  solubility (mole fraction): 0.00307
In ethanol, 308.15 K
  solubility (mole fraction): 0.0034
In ethanol, 313.15 K
  solubility (mole fraction): 0.00382
In ethanol, 318.15 K
  solubility (mole fraction): 0.00411
In ethanol, 323.15 K
  solubility (mole fraction): 0.00455
In water, 293.15 K
  solubility (mole fraction): 0.00155
In water, 298.15 K
  solubility (mole fraction): 0.00176
In water, 303.15 K
  solubility (mole fraction): 0.00195
In water, 308.15 K
  solubility (mole fraction): 0.00214
In water, 313.15 K
  solubility (mole fraction): 0.00241
In water, 318.15 K
  solubility (mole fraction): 0.00278
In water, 323.15 K
  solubility (mole fraction): 0.00312
